In PMC6540285, “Evaluation of Protein Kinase Inhibitors with PLK4 Cross-Over Potential in a Pre-Clinical Model of Cancer” (International Journal of Molecular Sciences, 2019):

Tests used:
PIM2 = PIM2 (Homo sapiens, UniProt Q9P1W9); test: SelectScreen kinase profiling, ZLYTE; type: biochemical; conditions: PIM2, 10 µM
CHUK (IKK alpha) = CHUK (IKK alpha) (Homo sapiens, UniProt O15111); test: SelectScreen kinase profiling, Adapta; type: biochemical
LIMK1 = LIMK1 (Homo sapiens, UniProt P53667); test: SelectScreen kinase profiling, LanthaScreen binding; conditions: LIMK1, 10 µM
CDK13/cyclin K = CDK13/cyclin K (Homo sapiens, UniProt Q14004); test: as above; conditions: read-out: % Inhibition Avg
HCK = HCK (Homo sapiens, UniProt P08631); test: SelectScreen kinase profiling, ZLYTE; type: biochemical
JAK2 = JAK2 (Homo sapiens, UniProt O60674); test: SelectScreen kinase profiling, ZLYTE; type: biochemical; conditions: JAK2, 10 µM
PRKCA (PKC alpha) = PRKCA (PKC alpha) (Homo sapiens, UniProt P17252); test: SelectScreen kinase profiling, ZLYTE; type: biochemical
P450 2B6 = P450 2B6 (Homo sapiens, UniProt P20813); test: SelectScreen P450 Vivid biochemical assay; conditions: 10000nM; substrate BOMCC
PDK1 Direct = PDK1 Direct (Homo sapiens, UniProt O15530); test: SelectScreen kinase profiling, ZLYTE; type: biochemical
CDC42 BPG (MRCKG) = CDC42 BPG (MRCKG) (Homo sapiens, UniProt Q6DT37); test: SelectScreen kinase profiling, ZLYTE; type: biochemical
CDC42 BPG (MRCKG), sequence (Q6DT37 whole entry): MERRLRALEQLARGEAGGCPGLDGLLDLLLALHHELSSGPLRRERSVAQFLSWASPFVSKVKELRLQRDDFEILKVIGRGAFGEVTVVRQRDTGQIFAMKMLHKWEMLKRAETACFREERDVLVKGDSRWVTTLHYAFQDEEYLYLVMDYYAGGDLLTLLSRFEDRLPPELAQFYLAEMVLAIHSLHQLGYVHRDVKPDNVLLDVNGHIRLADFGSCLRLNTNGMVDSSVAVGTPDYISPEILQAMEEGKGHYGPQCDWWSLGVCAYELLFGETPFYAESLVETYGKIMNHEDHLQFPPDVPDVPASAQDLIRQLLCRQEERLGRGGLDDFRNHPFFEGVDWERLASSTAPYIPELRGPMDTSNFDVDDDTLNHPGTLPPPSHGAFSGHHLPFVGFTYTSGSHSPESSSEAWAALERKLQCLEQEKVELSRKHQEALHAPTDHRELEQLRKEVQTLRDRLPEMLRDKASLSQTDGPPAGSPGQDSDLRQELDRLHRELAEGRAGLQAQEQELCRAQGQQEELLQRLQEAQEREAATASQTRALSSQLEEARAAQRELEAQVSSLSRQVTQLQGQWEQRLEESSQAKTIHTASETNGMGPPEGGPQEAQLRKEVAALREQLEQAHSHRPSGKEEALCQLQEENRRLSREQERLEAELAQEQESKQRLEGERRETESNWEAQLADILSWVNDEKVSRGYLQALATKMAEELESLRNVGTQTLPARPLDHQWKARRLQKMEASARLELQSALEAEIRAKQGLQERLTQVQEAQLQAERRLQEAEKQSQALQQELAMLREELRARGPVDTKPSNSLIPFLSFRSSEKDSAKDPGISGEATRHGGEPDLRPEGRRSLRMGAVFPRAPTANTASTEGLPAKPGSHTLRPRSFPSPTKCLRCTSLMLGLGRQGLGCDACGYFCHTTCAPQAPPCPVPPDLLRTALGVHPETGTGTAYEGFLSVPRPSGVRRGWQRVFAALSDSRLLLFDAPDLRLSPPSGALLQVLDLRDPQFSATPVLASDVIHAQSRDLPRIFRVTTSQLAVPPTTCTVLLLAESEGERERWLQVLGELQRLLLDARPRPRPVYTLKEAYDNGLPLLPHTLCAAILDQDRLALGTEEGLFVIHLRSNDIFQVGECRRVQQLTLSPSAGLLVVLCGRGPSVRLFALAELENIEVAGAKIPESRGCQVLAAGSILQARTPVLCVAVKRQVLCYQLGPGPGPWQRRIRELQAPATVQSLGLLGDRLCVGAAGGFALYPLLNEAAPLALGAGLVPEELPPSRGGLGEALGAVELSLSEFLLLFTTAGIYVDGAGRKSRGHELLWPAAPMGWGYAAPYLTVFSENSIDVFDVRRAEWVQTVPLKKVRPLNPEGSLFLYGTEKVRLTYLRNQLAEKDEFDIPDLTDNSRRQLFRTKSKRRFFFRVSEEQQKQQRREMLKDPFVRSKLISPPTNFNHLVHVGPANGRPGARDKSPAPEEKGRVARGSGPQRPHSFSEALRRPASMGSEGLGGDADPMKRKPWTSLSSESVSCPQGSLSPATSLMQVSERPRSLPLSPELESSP

LATS2 = LATS2 (Homo sapiens, UniProt Q9NRM7); test: SelectScreen kinase profiling, LanthaScreen binding; conditions: LATS2, 10 µM
DYRK1B = DYRK1B (Homo sapiens, UniProt Q9Y463); test: SelectScreen kinase profiling, ZLYTE; type: biochemical
PRKACA (PKA) = PRKACA (PKA) (Homo sapiens, UniProt P17612); test: SelectScreen kinase profiling, ZLYTE; type: biochemical
PIP5K1C = PIP5K1C (Homo sapiens, UniProt O60331); test: SelectScreen kinase profiling, Adapta; type: biochemical
CSNK2A1 (CK2 alpha 1) = CSNK2A1 (CK2 alpha 1) (Homo sapiens, UniProt P68400); test: SelectScreen kinase profiling, ZLYTE; type: biochemical
BMPR1A (ALK3) = BMPR1A (ALK3) (Homo sapiens, UniProt P36894); test: SelectScreen kinase profiling, LanthaScreen binding
BMPR1A (ALK3), sequence (P36894 24-532): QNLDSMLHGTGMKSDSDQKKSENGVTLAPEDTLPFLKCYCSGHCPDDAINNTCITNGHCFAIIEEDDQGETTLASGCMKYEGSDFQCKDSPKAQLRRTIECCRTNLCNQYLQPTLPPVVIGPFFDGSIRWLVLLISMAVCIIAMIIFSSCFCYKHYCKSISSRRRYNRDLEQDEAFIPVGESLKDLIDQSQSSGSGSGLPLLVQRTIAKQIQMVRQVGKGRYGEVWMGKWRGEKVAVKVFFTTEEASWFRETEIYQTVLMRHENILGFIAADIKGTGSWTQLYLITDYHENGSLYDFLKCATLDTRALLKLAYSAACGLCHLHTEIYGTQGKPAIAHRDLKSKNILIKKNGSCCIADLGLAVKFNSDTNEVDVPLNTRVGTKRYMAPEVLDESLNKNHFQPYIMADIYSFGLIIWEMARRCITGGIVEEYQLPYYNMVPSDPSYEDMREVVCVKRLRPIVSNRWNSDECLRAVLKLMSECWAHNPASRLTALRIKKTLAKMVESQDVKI

JAK2 JH1 JH2 V617F = target: T1, JAK2 JH1 JH2 V617F (Homo sapiens, UniProt O60674, V617F); test: SelectScreen kinase profiling, ZLYTE; type: biochemical
T1 construct: JAK2 JH1 JH2 V617F

RIPK3 = RIPK3 (Homo sapiens, UniProt Q9Y572); test: SelectScreen kinase profiling, LanthaScreen binding; conditions: RIPK3, 10 µM
AKT3 (PKB gamma) = AKT3 (PKB gamma) (Homo sapiens, UniProt Q9Y243); test: SelectScreen kinase profiling, ZLYTE; type: biochemical
AKT3 (PKB gamma), sequence (Q9Y243 whole entry): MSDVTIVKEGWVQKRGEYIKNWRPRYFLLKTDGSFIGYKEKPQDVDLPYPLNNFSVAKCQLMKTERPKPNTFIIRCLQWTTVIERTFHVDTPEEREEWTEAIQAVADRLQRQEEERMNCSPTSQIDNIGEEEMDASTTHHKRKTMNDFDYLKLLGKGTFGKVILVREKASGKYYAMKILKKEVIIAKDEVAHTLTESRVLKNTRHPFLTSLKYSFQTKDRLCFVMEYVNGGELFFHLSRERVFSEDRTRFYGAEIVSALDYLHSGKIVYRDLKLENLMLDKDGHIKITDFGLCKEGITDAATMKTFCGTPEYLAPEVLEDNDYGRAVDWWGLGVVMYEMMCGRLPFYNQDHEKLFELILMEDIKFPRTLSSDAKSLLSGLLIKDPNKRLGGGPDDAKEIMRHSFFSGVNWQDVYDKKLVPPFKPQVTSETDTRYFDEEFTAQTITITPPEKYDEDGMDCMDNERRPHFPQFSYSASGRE

ABL1 M351T = ABL1 M351T (Homo sapiens, UniProt P00519, M351T); test: SelectScreen kinase profiling, LanthaScreen binding
CYP2D6 = CYP2D6 (Homo sapiens, UniProt P10635); test: SelectScreen P450 Vivid biochemical assay; conditions: 10000nM; substrate EOMCC
P450 2J2 = P450 2J2 (Homo sapiens, UniProt P51589); test: SelectScreen P450 Vivid biochemical assay; conditions: 10000nM; substrate MOBFC
FGFR3 V555M = FGFR3 V555M (Homo sapiens, UniProt P22607, V555M); test: SelectScreen kinase profiling, ZLYTE; type: biochemical
MET (cMet) = MET (cMet) (Homo sapiens, UniProt P08581); test: SelectScreen kinase profiling, ZLYTE; type: biochemical
NEK1 = NEK1 (Homo sapiens, UniProt Q96PY6); test: SelectScreen kinase profiling, ZLYTE; type: biochemical; conditions: NEK1, 10 µM
NEK1, sequence (Q96PY6 whole entry): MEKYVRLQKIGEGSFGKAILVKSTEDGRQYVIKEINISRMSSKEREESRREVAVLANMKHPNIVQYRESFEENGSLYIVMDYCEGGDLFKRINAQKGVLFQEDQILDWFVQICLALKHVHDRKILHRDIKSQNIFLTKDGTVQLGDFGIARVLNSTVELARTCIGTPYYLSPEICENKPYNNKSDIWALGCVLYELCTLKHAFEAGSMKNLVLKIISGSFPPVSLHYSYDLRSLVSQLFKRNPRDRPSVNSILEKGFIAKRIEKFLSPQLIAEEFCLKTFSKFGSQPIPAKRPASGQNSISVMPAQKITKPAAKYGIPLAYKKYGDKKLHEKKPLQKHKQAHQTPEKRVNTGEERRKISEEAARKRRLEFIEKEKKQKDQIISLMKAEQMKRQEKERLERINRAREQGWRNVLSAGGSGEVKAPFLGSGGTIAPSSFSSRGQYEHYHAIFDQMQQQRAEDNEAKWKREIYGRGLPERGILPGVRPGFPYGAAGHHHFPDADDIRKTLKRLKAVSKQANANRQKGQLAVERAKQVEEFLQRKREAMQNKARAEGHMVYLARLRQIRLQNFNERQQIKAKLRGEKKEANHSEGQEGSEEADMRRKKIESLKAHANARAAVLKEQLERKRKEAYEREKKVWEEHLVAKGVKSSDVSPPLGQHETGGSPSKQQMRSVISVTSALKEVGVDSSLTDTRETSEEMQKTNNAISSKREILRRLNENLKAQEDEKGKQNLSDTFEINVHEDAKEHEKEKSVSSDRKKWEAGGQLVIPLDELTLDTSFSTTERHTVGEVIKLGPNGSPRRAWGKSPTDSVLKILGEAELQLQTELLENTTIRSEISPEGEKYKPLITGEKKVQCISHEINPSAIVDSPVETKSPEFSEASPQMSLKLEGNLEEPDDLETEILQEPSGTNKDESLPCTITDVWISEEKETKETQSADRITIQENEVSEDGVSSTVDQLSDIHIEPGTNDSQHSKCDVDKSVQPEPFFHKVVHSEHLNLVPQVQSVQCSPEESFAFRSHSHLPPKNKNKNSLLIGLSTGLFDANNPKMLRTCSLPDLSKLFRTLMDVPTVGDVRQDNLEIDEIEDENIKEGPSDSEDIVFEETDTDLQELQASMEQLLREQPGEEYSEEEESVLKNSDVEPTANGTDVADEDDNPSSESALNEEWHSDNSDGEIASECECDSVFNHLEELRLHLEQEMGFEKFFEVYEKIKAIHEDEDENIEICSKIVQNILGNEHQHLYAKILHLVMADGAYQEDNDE

CDC7/DBF4 = CDC7/DBF4 (Homo sapiens, UniProt O00311); test: SelectScreen kinase profiling, LanthaScreen binding; conditions: CDC7/DBF4, 10 µM
AMPK (A1/B1/G2) = AMPK (A1/B1/G2) (Homo sapiens, UniProt Q13131); test: as above
[1] = target: PIK3CA E542K/PIK3R1 (p110 alpha E542K/p85 alpha) (Homo sapiens, UniProt P42336, E542K); test: SelectScreen kinase profiling, Adapta; type: biochemical; conditions: PIK3CA E542K/PIK3R1, 10 µM
CDK4/cyclin D3 = CDK4/cyclin D3 (Homo sapiens, UniProt P11802); test: SelectScreen kinase profiling, Adapta; type: biochemical; conditions: CDK4/cyclin D3, 10 µM
AMPK A2/B1/G1 = AMPK A2/B1/G1 (Homo sapiens, UniProt P54646); test: SelectScreen kinase profiling, ZLYTE; type: biochemical; conditions: AMPK A2/B1/G1, 10 µM
FGFR2 N549H = FGFR2 N549H (Homo sapiens, UniProt P21802, N549H); test: SelectScreen kinase profiling, ZLYTE; type: biochemical
LRRK2 G2019S FL = LRRK2 G2019S FL (Homo sapiens, UniProt Q5S007, G2019S); test: SelectScreen kinase profiling, Adapta; type: biochemical
DNA-PK = DNA-PK (Homo sapiens, UniProt P78527); test: SelectScreen kinase profiling, ZLYTE; type: biochemical
RIPK2 = RIPK2 (Homo sapiens, UniProt O43353); test: SelectScreen kinase profiling, LanthaScreen binding; conditions: RIPK2, 10 µM
RIPK2, sequence (O43353 whole entry): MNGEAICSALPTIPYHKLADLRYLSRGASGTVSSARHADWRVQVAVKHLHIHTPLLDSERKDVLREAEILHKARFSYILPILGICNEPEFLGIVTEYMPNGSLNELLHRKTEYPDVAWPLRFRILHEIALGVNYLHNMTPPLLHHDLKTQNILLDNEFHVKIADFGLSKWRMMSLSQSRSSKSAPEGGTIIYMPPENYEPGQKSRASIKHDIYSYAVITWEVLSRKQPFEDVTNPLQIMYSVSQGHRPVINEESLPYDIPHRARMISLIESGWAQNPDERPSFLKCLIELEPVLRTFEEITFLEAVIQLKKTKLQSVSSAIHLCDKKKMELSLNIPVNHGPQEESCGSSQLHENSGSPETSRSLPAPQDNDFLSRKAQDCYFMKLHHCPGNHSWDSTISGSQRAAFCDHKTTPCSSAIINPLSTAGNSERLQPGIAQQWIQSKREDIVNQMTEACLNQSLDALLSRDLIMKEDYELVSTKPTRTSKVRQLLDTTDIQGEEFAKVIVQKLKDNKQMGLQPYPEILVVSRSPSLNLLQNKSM

PIP5K1A = PIP5K1A (Homo sapiens, UniProt Q99755); test: SelectScreen kinase profiling, Adapta; type: biochemical
PIP5K1A, sequence (Q99755 whole entry): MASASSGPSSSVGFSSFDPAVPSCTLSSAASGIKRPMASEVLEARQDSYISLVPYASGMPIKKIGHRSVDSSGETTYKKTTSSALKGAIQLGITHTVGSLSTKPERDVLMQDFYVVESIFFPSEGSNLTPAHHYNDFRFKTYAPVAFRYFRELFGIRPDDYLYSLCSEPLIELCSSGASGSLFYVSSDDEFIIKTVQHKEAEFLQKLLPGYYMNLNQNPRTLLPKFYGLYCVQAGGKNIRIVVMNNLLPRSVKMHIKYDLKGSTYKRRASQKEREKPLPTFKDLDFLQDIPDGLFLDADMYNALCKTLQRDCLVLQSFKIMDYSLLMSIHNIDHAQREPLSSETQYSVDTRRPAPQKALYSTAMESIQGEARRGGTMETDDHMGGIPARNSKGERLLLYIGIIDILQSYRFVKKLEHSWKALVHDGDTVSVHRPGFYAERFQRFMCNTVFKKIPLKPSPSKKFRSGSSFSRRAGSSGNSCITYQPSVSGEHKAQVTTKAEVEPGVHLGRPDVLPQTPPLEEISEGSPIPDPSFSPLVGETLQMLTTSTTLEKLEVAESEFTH

MAP2K2 (MEK2) = MAP2K2 (MEK2) (Homo sapiens, UniProt P36507); test: SelectScreen kinase profiling, ZLYTE; type: biochemical
FLT3 ITD = test: SelectScreen kinase profiling, LanthaScreen binding; conditions: 10 µM
DYRK3 = DYRK3 (Homo sapiens, UniProt O43781); test: SelectScreen kinase profiling, ZLYTE; type: biochemical; conditions: DYRK3, 10 µM

O=C(c1ccc(/C=C/c2n[nH]c3ccccc23)cc1)N1CCNCC1 [KW-2449]
inhibition at 10 µM (PIM2): 8%
inhibition at 10 µM (CHUK (IKK alpha)): 96%
inhibition at 10 µM (LIMK1): 32%
inhibition at 10 µM (CDK13/cyclin K): 70%
inhibition at 10 µM (HCK): 90%
inhibition at 10 µM (JAK2): 98%
inhibition at 10 µM (PRKCA (PKC alpha)): 61%
% Inhibition 2B6 BOMCC (P450 2B6): 48%
inhibition at 10 µM (PDK1 Direct): 103%
inhibition at 10 µM (CDC42 BPG (MRCKG)): 68%
inhibition at 10 µM (LATS2): 68%
inhibition at 10 µM (DYRK1B): 91%
inhibition at 10 µM (PRKACA (PKA)): 76%
inhibition at 10 µM (PIP5K1C): 7%
inhibition at 10 µM (CSNK2A1 (CK2 alpha 1)): 18%
inhibition at 10 µM (BMPR1A (ALK3)): 98%
inhibition at 10 µM (JAK2 JH1 JH2 V617F): 94%
inhibition at 10 µM (RIPK3): 18%
inhibition at 10 µM (AKT3 (PKB gamma)): 11%
inhibition at 10 µM (ABL1 M351T): 52%
% Inhibition 2D6 EOMCC (CYP2D6): 1%
% Inhibition 2J2 MOBFC (P450 2J2): 96%
inhibition at 10 µM (FGFR3 V555M): 100%
inhibition at 10 µM (MET (cMet)): 95%
inhibition at 10 µM (NEK1): 67%
inhibition at 10 µM (CDC7/DBF4): 16%
inhibition at 10 µM (AMPK (A1/B1/G2)): 85%
inhibition at 10 µM [1]: 13%
inhibition at 10 µM (CDK4/cyclin D3): 83%
inhibition at 10 µM (AMPK A2/B1/G1): 99%
inhibition at 10 µM (FGFR2 N549H): 94%
inhibition at 10 µM (LRRK2 G2019S FL): 100%
inhibition at 10 µM (DNA-PK): 24%
inhibition at 10 µM (RIPK2): 77%
inhibition at 10 µM (PIP5K1A): 16%
inhibition at 10 µM (MAP2K2 (MEK2)): 75%
% Inhibition Avg (FLT3 ITD): 5%
inhibition at 10 µM (DYRK3): 86%
